The record followed here is patent US12157713B2, “Conjugated oligoelectrolytes as antimicrobial agents” (Nanyang Technological University, priority 2018, dated 2024).

Series [1] concerns Klebsiella pneumoniae MDR ATCC 700603. The experiment in a line: Single-dose growth inhibition, Kp. The series is classed as cell-based. The method, then:
(§1) Inhibition of bacterial growth was determined by measuring the absorbance at 600 nm (OD600), using a Tecan M1000 Pro monochromator plate reader. Growth inhibition was calculated for each well, relative to the reference growths determined from a negative control (media only) and positive control (bacteria without inhibitors) incubated in the same plate. A single dose of 32 μg/mL of COE (final concentration) was used for each test.
(§2) Percentage growth inhibition of an individual sample was calculated based on growth in a reference well determined from negative controls (media only) and positive controls (bacterial/fungal media without inhibitors). Negative inhibition values indicate that the growth rate (or OD600) is higher compared to the reference growth (bacteria/fungi only, set to 0% inhibition). The growth rates for all bacteria and fungi may vary at −/+10%, which were within the reported normal distribution of bacterial/fungal growth. Any significant variations (or outliers/hits) were identified by the modified Z-Score, and the active compounds were selected by a combination of inhibition values and Z-Score.
(§3) A M(i) value of >|2.5| (absolute) would classify the sample as outliers or hits. Active samples were denoted as compounds with inhibition values equal to or above 80% and absolute Z-Score above |2.5| for either replicate (n=2 on different plates). Partial active samples were denoted as compounds with inhibition values from 50% to <80%, or absolute Z-Score below |2.5|.

For series [2], the system named is Escherichia coli FDA control ATCC 25922. The experiment in a line: Single-dose growth inhibition, Ec. Format: cell-based. As to the method: as §1, §2, §3
Series [3] relates to Pseudomonas aeruginosa ATCC 27853. Kind of series: Single-dose growth inhibition, Pa. The series is classed as cell-based. As to the method: as §1, §2, §3
Series [4] deals with Acinetobacter baumannii ATCC 19606. The experiment in a line: Single-dose growth inhibition, Ab. Format: cell-based. As to the method: as §1, §2, §3
Series [5] relates to Cryptococcus neoformans var. grubii H99; ATCC 208821. Kind of series: Single-dose growth inhibition, Cn. The series is classed as cell-based. As to the method:
Growth inhibition of C. albicans was determined by measuring the absorbance at 530 nm (OD530), while the growth inhibition of C. neoformans was determined by measuring the difference in absorbance between 600 and 570 nm (OD600-570), after the addition of resazurin (0.001 wt. % final concentration) and incubation at 35° C. for additional 2 hrs. The absorbance was measured using a Biotek Synergy HTX plate reader. The relative growth inhibition was calculated for each well, relative to that determined from a negative control (media only) and positive control (bacteria without inhibitors) on the same plate as references. A single dose of 32 μg/mL of COE (final concentration) was used for each test.
as §2, §3

Series [6] has as its system organism classes (Gram-negative, Gram-positive and fungi). The experiment in a line: Single-dose screening summary by organism class. The series is classed as cell-based. Particulars: 32 μg/mL; 0 = no activity. The method, then:
as §2
Z-Score analysis was carried out to investigate outliers or hits among the samples. The Z-Score was calculated based on the sample population using a modified Z-Score method which accounts for possible skewed sample population. The modified method uses median and MAD ([…]) instead of average and standard deviation, and a scaling factor (Iglewicz, B. & Hoaglin, D. C. Volume 16: How to Detect and Handle Outliers. The ASQC Basic Reference in Quality Control: Statistical Techniques, 1993). The equation to calculate the modified Z-Score value is as follow: […]
as §3

Series [7] in a line: Solubility in PBS / aqueous solubility. Format: physicochemical.
For series [8], the system named is E. coli K12. The experiment in a line: SEM of COE-treated E. coli K12. Format: cell-based, Escherichia coli. The note with it: 32 μg mL^−1 COE, 2 hrs. The method, then: E. coli K-12 was grown, collected and washed according to the procedure described above (in the uptake measurements). COE solutions (in PBS) were added to a PBS suspension of E. coli K12 (OD600=1.0) to achieve final COE concentrations of 32 μg/mL. After incubating for 2 hrs at room temperature under shaking (200 rpm), the microbes were immediately fixed with 2.5% glutaraldehyde solution at 4° C. overnight. 10 μL of the fixed bacteria suspension was spotted onto the SEM conducting paste and left to dry in air. The bacteria samples were dehydrated with a series of increasingly concentrated ethanol solution (20%-100%). After drying overnight, the samples were coated with platinum and imaged with FESEM (JEOL JSM-6700F) to characterise the morphology of the samples.
Characterisation of treated E. coli K12 by scanning electron microscopy (SEM) COE-treated cells were characterised by SEM. E. coli K12 ([…]) were treated with 32 μg mL^−1 of each COE. […] This is consistent with the proposal that COE insertion disrupts membrane integrity and this effect is of a greater magnitude for COE-D8.

Series [9] relates to E. coli K12. Kind of series: Epifluorescence imaging of COE-treated E. coli K12. The series is classed as cell-based, Escherichia coli. Particulars: 32 μg/mL COE; excitation 365 nm, emission 445/50 nm. The method, then:
E. coli K-12 was grown, collected and washed according to the procedure described above (in the uptake measurements). COE solutions (in PBS) were added to a PBS suspension of E. coli K12 (OD600=1.0) to achieve final COE concentrations of 32 μg/mL. After incubating for 2 hrs at room temperature under shaking (200 rpm), a drop of suspension was placed on a microscope slide with a cover slip (#1.5, 0.17 mm thickness) and imaged using an inverted widefield epifluorescence microscope with Plan-Apochromat 100x/1.4 phase contrast with oil immersion lens (Carl Zeiss Axio Observer Z1 Inverted Microscope). The fluorescence microscopy images were observed by collecting the fluorescence signal of COEs using the DAPI dye channel (filter set 49 DAPI with excitation peak at 365 nm and emission at 445/50 nm). The bright field images of cells were obtained at exact same location using phase contrast transmitted light technique (Plan-Apochromat 100x/1.4 phase contrast with oil immersion lens). The cell images treated by different COEs were obtained under identical conditions with the matching irradiation frequency and exposure time.
Epi-fluorescence images of the COE-treated E. coli K12 cells were acquired by excitation at λ=365 nm and collecting emission at λ=445/50 nm.

The mark [10] stands for this setting: ATCC700603, read-out: Growth inhibition Kp.
The mark [11] stands for this setting: ATCC25922, read-out: Growth inhibition Ec.
[12] abbreviates: ATCC27853, read-out: Growth inhibition Pa.
[13] abbreviates: ATCC19606, read-out: Growth inhibition Ab.
[14] abbreviates: ATCC208821, read-out: Growth inhibition Cn.
Setting [15] is: aqueous buffer, in PBS, read-out: Solubility in PBS.
[16] abbreviates: PBS (aqueous solubility), read-out: aqueous solubility.
[17] abbreviates: ATCC700603, 32 μg/mL single dose, n=2, read-out: Growth inhibition Kp.
Where [18] appears, read: ATCC25922, 32 μg/mL single dose, n=2, read-out: Growth inhibition Ec.
The mark [19] stands for this setting: ATCC27853, 32 μg/mL single dose, n=2, read-out: Growth inhibition Pa.
Setting [20] is: ATCC19606, 32 μg/mL single dose, n=2, read-out: Growth inhibition Ab.
The mark [21] stands for this setting: ATCC208821, 32 μg/mL single dose, n=2, read-out: Growth inhibition Cn.

Like-named read-outs stand apart in the source and are kept apart here.

The term inhibition denotes the change of the read-out against control, counted positive when it falls. A word on the solubility: it is how much of the substance goes into solution per volume. For `C[N+](C)(C)CCCCOc1ccc(/C=C/c2ccc(OCCCC[N+](C)(C)C)cc2)cc1` [COE-D4], the inhibition at 32 µg/mL in [1] (setting [10]) is less than 50%; in [2] (setting [11]), less than 50%; in [3] (setting [12]), less than 50%; in series [4] (setting [13]), less than 50%; in series [5] (setting [14]), greater than 80%. For the same compound, the “Activity: number of organism classes the compound has been found active against” value (“Activity: number” below) in series [6] is reported as 2. Moreover, the solubility in series [7] (setting [15]) worked out at 3100 µg/mL. Moreover, the “Morphology of treated E. coli K12 by SEM” value in series [8] is listed as “rod-shaped cells with smooth outer surfaces”. The “Fluorescence intensity of treated E. coli K12 cells relative to background” value in series [9] is on record as “indistinct image”.
Turning to `C[N+](C)(C)CCCCCCOc1ccc(/C=C/c2ccc(OCCCCCC[N+](C)(C)C)cc2)cc1` [COE-D6], the inhibition at 32 µg/mL in series [1] (setting [10]) is less than 50%; in series [2] (setting [11]), greater than 80%; in series [3] (setting [12]), less than 50%; in [4] (setting [13]), less than 50%; in series [5] (setting [14]), greater than 80%. For the same compound, the “Activity: number” value in [6] is 3. The solubility in series [7] (setting [16]) and in series [7] (setting [15]) was 240 µg/mL in each case. Besides, the “Morphology of treated E. coli K12 by SEM” value in [8] is “pitting and membrane rupture”. Also, the “Fluorescence intensity of treated E. coli K12 cells relative to background” value in [9] was “intermediate fluorescence intensity”.
For the compound `C[N+](C)(C)CCCCCCCCOc1ccc(/C=C/c2ccc(OCCCCCCCC[N+](C)(C)C)cc2)cc1` [COE-D8], the inhibition at 32 µg/mL in series [1] (setting [10]) is 50 to 80%; in series [2] (setting [11]), greater than 80%; in series [3] (setting [12]) it was 50 to 80%; in series [4] (setting [13]) it was greater than 80%; in series [5] (setting [14]), greater than 80%. The “Activity: number” value in series [6] turned out to be 3. For the same compound, the solubility in [7] (setting [15]) is 65 µg/mL. For the same compound, the “Morphology of treated E. coli K12 by SEM” value in series [8] is “pitting and membrane rupture”. The “Fluorescence intensity of treated E. coli K12 cells relative to background” value in series [9] was “highest fluorescence intensities”.
As to `CN(C)CC[N+](C)(C)CCCCCCOc1ccc(/C=C/c2ccc(OCCCCCC[N+](C)(C)CCN(C)C)cc2)cc1` [COE-D62N], the inhibition at 32 µg/mL is less than 50% in series [1] (setting [17]); greater than 80% in series [2] (setting [18]); less than 50% in series [3] (setting [19]); greater than 80% in series [4] (setting [20]); greater than 80% in series [5] (setting [21]). Also, the “Activity: number” value in series [6] worked out at 3. For the same compound, in series [7] (setting [16]), the solubility is greater than 4000 µg/mL.
Regarding `CN(C)CC[N+](C)(C)CCCCCCCCOc1ccc(/C=C/c2ccc(OCCCCCCCC[N+](C)(C)CCN(C)C)cc2)cc1` [COE-D82N], the inhibition at 32 µg/mL was greater than 80% in series [1] (setting [17]); greater than 80% in [2] (setting [18]); 50 to 80% in series [3] (setting [19]); greater than 80% in series [4] (setting [20]); greater than 80% in series [5] (setting [21]). Further, the “Activity: number” value in series [6] amounted to 3.
